Reference: ChEMBL document CHEMBL1201862, “PubChem BioAssay data set” (2004)
Active and inactive are the calls of the source.

Tests used:
[1] = cytotoxicity in HEK-293T cells, dose response, cytotoxicity control for TCR NF-kB inhibitor project, luminescence, T-cell screen hits (AID 489026); type: functional, cell-based;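 note: cells exposed to compound about 14 hours before the viability readout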
Aminopeptidase N = molecular target: T1, Aminopeptidase N (Plasmodium falciparum FcB1/Columbia, UniProt O96935); assay: P. falciparum M1AAP inhibitors, biochemical, fluorogenic H-Leu-NHMec substrate, 1536-well (AID 1445); parameters: species or system Plasmodium falciparum 3D7, 3D7
T1 sequence (O96935 whole entry): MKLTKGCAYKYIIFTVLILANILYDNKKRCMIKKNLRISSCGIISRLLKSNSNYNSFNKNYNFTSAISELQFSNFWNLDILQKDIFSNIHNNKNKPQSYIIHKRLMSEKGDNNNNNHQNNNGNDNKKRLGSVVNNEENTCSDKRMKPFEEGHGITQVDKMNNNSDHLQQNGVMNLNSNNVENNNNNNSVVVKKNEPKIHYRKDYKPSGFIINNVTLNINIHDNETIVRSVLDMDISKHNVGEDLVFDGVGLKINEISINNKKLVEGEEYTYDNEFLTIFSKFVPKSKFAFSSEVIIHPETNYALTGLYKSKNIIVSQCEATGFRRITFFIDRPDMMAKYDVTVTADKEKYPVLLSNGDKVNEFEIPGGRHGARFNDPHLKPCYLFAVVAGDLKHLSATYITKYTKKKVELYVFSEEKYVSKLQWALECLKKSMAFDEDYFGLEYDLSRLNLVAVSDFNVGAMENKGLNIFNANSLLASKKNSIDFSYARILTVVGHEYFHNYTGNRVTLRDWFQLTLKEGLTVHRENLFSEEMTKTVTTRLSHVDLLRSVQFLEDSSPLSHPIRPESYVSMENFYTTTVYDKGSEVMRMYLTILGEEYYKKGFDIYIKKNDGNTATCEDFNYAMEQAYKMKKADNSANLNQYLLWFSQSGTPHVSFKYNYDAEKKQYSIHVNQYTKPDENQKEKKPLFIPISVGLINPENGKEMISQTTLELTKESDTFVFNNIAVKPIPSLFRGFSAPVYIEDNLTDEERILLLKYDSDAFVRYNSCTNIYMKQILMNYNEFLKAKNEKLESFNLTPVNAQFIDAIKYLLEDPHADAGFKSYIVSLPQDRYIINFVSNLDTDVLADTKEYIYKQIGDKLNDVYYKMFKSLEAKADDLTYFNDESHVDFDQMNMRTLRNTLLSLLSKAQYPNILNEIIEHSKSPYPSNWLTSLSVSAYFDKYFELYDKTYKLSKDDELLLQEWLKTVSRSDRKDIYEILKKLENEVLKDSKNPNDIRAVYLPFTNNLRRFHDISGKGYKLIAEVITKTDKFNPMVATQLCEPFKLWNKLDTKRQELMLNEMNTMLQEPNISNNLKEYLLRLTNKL

[2] = HepG2 cell cytotoxicity, dose response, cytotoxicity control for Shn3 inhibitor project, CellTiter-Glo, cherry-picked (AID 624134); type: functional, cell-based
[3] = control 3'UTR Renilla luciferase suppression, dose response, counter-screen for Shn3 inhibitor project, cell-based, Clone20-Shn3RL, cherry-picked (AID 624133); type: functional
[4] = Shn3 3'UTR reporter inhibitors, dose response, cell-based, Clone20 osteoblasts, firefly luciferase, cherry-picked (AID 624132); type: functional;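 note: firefly luciferase luminescence from reporter carrying the Shn3 3'UTR in osteoblasts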
INS1 = assay: beta cell apoptosis inhibitors, cytokine rescue, dose response, luminescence, retest (AID 449756); type: functional, cell-based; conditions: Rattus norvegicus;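 note: cell death triggered by IL-1 beta plus TNF-alpha plus IFN-gamma mixture; protective hits raise ATP signal compared with cytokine alone wells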
[5] = molecular target: T2, High affinity choline transporter 1 (Homo sapiens, UniProt Q9GZV3); assay: CHT inhibitors, dose response, cell-based, 5-point CRC, membrane potential dye (AID 504840); type: functional
T2 sequence (Q9GZV3 whole entry): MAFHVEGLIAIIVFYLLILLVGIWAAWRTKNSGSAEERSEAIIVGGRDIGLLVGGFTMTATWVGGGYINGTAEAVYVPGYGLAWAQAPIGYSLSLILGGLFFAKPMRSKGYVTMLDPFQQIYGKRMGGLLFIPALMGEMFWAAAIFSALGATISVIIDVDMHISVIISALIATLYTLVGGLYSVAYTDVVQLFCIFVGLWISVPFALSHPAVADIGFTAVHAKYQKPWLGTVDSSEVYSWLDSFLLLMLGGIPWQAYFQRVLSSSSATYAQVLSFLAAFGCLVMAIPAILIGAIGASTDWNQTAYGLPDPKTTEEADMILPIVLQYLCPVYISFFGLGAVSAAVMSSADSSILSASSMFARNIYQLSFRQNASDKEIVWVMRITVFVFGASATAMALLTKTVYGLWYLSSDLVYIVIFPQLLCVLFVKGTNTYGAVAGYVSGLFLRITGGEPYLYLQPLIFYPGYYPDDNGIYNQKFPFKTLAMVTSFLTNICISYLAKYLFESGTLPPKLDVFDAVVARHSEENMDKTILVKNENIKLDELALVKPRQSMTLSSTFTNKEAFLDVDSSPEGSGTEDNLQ

cells = type: functional
[6] = THP-1 cell cytotoxicity, dose response, cytotoxicity control for non-replicating M. tuberculosis project (AID 489025); type: functional
[7] = cytotoxicity toward NIH3T3 fibroblasts, dose response, counter-screen, cell-based, ATP luminescence, mouse fibroblasts (AID 2010); type: functional;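 note: cells exposed to compound for about 90 hours before reading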
[8] = inhibitors of intracellular T. cruzi replication, confirmation, NIH3T3 host cells, beta-gal luminescence (AID 2044); type: functional, cell-based;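 note: intracellular parasites grown in NIH/3T3 mouse fibroblasts as host cells; luminescent beta-galactosidase reporter signal from transgenic T. cruzi replicating inside host cells; inhibitors lower the luminescence signal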
Nonstructural protein 1 = Nonstructural protein 1 (Influenza A virus, UniProt Q194T2); type: functional, Influenza A virus (A/California/07/2009(H1N1))
Nonstructural protein 1, sequence (Q194T2 whole entry): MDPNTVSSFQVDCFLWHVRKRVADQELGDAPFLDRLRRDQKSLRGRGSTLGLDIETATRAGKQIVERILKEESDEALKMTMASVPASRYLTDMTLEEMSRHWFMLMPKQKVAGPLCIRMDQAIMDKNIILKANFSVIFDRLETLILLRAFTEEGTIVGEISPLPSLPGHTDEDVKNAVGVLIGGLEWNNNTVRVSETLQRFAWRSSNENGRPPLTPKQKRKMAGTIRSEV

[9] = molecular target: Heat shock protein HSP 90-alpha (Homo sapiens, UniProt P07900); type: functional, organism-based
[10] = A549 cell cytotoxicity, dose response, cytotoxicity control, plate reader, cherry-pick, antagonist series (AID 743412); type: functional, cell-based
BJ [11] = assay: cytotoxicity toward BJ-TERT fibroblasts, dose response, cell-based, RAS-independent, luminescence (AID 1933); type: functional; conditions: Homo sapiens
BJ [12] = assay: cells; type: functional, cell-based; conditions: Homo sapiens
BJ [13] = assay: cytotoxicity toward BJ-TERT-LT-ST fibroblasts, dose response, cell-based, RAS-independent, luminescence (AID 1935); type: functional; conditions: Homo sapiens;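 note: BJ fibroblasts immortalized with TERT plus LT and ST oncogenes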
[14] = cytotoxicity toward DRD oncogenic fibroblasts, dose response, cell-based, non-viral oncogenic, luminescence (AID 1934); type: functional; conditions: Homo sapiens
[15] = Luminescence Cell-Based Dose Retest to Confirm Inhibitors of Cancer Stem Cells. [Related pubchem assays (depositor defined):AID2717, AID2721]; type: functional; conditions: Homo sapiens

COc1ccc(CCN2C(=O)C3C4C=CC(C3C2=O)C2C(=O)N(CCc3ccc(OC)c(OC)c3)C(=O)C42)cc1OC (centres undefined)
IC50 [1]: > 80 µM (inactive)

CN(C)Cc1c(O)c(Cl)cc2c3c(c(=O)oc12)CCCC3
IC50 (Aminopeptidase N): 30.1 µM (active)

Cc1ccc(NC(=O)C2CCN(S(=O)(=O)c3ccc(N4CCCC4=O)cc3)CC2)cc1Cl
AC50 [2]: > 70 µM (inactive)
AC50 [3]: 0.808 µM (active)
AC50 [4]: 0.549 µM (active)
AC50 (INS1): 1.93 µM (active)

O=C(O)c1cccc(N2C(=O)c3cccc4c(Cl)ccc(c34)C2=O)c1
IC50 (Aminopeptidase N): 83.3 µM (active)

CCOC(=O)C1=C(COC(=O)c2ccc(OC(C)C)cc2)NC(=O)NC1C (centres undefined)
IC50 [5]: 16.6 µM (active)

Cc1ccc(OCCCCn2ccnc2)c(Cl)c1
IC50 (cells): 39.1 µM (active)
CC50 [6]: > 40 µM (active)
EC50 [7]: > 60 µM (not active)
EC50 [8]: 1.37 µM (active)

O=C(Sc1cccc2cccnc12)c1ccc(F)cc1
IC50 [1]: > 80 µM (inactive)

Cc1cc([N+](=O)[O-])c(NC2CCCCC2)c([N+](=O)[O-])c1
IC50 (Nonstructural protein 1): 41.5 µM (active)

Oc1ccc(C=NNC(=S)Nc2ccc(F)cc2)c(O)c1
IC50 (Nonstructural protein 1): 14.6 µM (active)

O=C1C=CC(=O)N1c1ccc2c(c1)Cc1cc(F)ccc1-2
AC50 [9]: < 0.195 µM (active)

N#Cc1cc2c(nc1SCc1ccccc1)CCCC2=O
IC50 (Aminopeptidase N): 86.4 µM (active)

C[C@H](CO)N1C[C@H](C)[C@H](CN(C)C(=O)CN2CCOCC2)Oc2ncc(C#CCN(C)C)cc2C1=O
AC50 [10]: > 52 µM (inactive)

CC(C)(C)c1nnc(N/N=C/c2ccccc2O)n(N)c1=O
IC50 (Nonstructural protein 1): 5.93 µM (active)
IC50 [1]: > 80 µM (inactive)
EC50 (BJ [11]): 1.86 µM (active)
EC50 (BJ [12]): 8.53 µM (inconclusive)
EC50 (BJ [13]): 15.1 µM (active)
EC50 [14]: 2.47 µM (active)

C=CCN1C(=O)/C(=N\Nc2c(C)n(C)n(-c3ccccc3)c2=O)C(=O)NC1=S
IC50 (Nonstructural protein 1): 2.29 µM (active)

Cc1cc(C)n(CC(=O)N/N=C/c2cc([N+](=O)[O-])ccc2O)n1
IC50 (Nonstructural protein 1): 10.8 µM (active)

CCCOc1ccc(/C=N/Nc2cc(N3CCOCC3)ncn2)c(O)c1
IC50 [1]: > 80 µM (inactive)
AC50 [15]: 2.87 µM (active)
AC50 (INS1): 2.27 µM (active)
